In assay [1] the target is Melatonin receptor type 1A (Homo sapiens, UniProt P48039). The assay is described as follows: Binding affinity against human Melatonin receptor type 1A by using 2-[125I]iodomelatonin as radioligand.
For assay [2], the target named is T1, Melatonin receptor type 1B (Homo sapiens, UniProt P49286).
T1 sequence (P49286 whole entry): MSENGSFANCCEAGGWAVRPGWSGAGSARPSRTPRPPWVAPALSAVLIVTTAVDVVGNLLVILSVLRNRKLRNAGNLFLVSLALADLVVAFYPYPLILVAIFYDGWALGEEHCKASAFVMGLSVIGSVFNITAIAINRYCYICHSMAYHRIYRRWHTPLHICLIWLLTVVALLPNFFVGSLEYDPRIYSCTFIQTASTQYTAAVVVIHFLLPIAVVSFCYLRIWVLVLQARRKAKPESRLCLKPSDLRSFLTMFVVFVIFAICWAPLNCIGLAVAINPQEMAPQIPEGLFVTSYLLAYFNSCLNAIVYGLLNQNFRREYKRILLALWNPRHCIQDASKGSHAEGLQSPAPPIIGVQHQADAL
The assay is described as follows: Binding affinity against human Melatonin receptor type 1B by using 2-[125I]iodomelatonin as radioligand.

Assay [3] addresses T2, Melatonin receptor (Homo sapiens, UniProt P48039+P49286). As to the kind of experiment: Intrinsic activity against human melatonin receptor (MT). In kind it is protein assay.
Assay [4] has as its target T2, Melatonin receptor. As to the kind of experiment: Agonist activity for its ability to inhibit forskolin-stimulated cAMP accumulation against MT1 receptor. In kind it is functional. (Cyclic AMP is a second messenger, typically raised through Gs and lowered through Gi signalling.)
Assay [5] has as its target Melatonin receptor type 1B (Homo sapiens) (UniProt P49286). The assay is described as follows: Agonist activity for its ability to inhibit forskolin-stimulated cAMP accumulation against MT2 receptor.
Assay [6] has the same target. As to the kind of experiment: Intrinsic activity against human melatonin receptor (MT).

The text below walks through data of ChEMBL document CHEMBL1146812 (Bioorg Med Chem Lett, 2004).

A word on the Ki: it is a measure of affinity in units of concentration, obtained from inhibition or displacement. One may read the EC50 as the concentration at which the effect is half-maximal.

Melatonin receptor type 1A, sequence (P48039 whole entry): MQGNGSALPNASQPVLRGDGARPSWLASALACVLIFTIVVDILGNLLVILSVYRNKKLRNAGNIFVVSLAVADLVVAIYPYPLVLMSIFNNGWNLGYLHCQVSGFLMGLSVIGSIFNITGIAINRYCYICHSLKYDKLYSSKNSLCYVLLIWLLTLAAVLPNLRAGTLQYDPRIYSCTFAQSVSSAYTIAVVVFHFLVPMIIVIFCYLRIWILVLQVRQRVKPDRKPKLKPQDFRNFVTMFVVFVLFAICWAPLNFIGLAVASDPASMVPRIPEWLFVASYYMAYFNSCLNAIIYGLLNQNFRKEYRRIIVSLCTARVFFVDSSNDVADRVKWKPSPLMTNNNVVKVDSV
T2 sequence (P48039 whole entry, looked up, one chain of several): as the sequence (P48039 whole entry) above

Take `CCCC(=O)NCCCc1cccc2nc(-c3ccccc3)oc12`: the Ki in assay [1] is 60 nM; in assay [2], 17 nM.
In the same order, the values of `CC(=O)NCCCc1cccc2ncoc12` are 30 nM and 4.3 nM.
On the same counts, the results for `CC(=O)NCCCc1cccc2nc(C(C)C)oc12` are 116 nM and 35 nM.
In the same order, the values of `O=C(NCCCc1cccc2nc(-c3ccccc3)oc12)C1CC1` are 23 nM and 38 nM.
Consider `CCNC(=O)NCCCc1cccc2nc(C)oc12`, for which the figures for the Ki in assay [1] and in assay [2] were 50 nM and 26 nM, respectively.
Regarding `CC(C)C(=O)NCCCc1cccc2nc(C(C)C)oc12`, the figures for the Ki in assay [1] and in assay [2] were 40 nM and 88 nM, respectively.
On the same counts, the results for `CCC(=O)NCCCc1cccc2ncoc12` are 6.6 nM and 1.8 nM.
In the same order, the values of `CCCC(=O)NCCCc1cccc2nc(C)oc12` are 2.3 nM and 2.2 nM.
On the same counts, the results for `CCc1nc2cccc(CCCNC(C)=O)c2o1` are 9 nM and 2.3 nM.
As for `CCc1nc2cccc(CCCNC(=O)C3CC3)c2o1`, the Ki in assay [1] is 4.5 nM; in assay [2], 4.7 nM.
In the same order, the values of `CCCC(=O)NCCCc1cccc2nc(CC)oc12` are 8.1 nM and 1 nM.
`CCC(=O)NCCCc1cccc2nc(C)oc12` gave an Activity on Melatonin receptor [3] of 0.98. In addition, the Ki in assay [1] and in assay [2] was 2.8 nM each time. On Melatonin receptor [4], this molecule gave an EC50 of 0.26 nM.
With `CC(=O)NCCCc1cccc2nc(C)oc12`, the figures for the Ki in assay [1] and in assay [2] were 24 nM and 5.3 nM, respectively.
On the same counts, the results for `CC(C)C(=O)NCCCc1cccc2nc(-c3ccccc3)oc12` are 87 nM and 57 nM.
In the same order, the values of `CCCC(=O)NCCCc1cccc2nc(CCCCc3ccccc3)oc12` are 3.3 nM and 29 nM.
For the molecule `Cc1nc2cccc(CCCNC(=O)C3CC3)c2o1`, in assay [5], the EC50 was 0.74 nM. Moreover, the Ki in assay [1] came out at 0.7 nM; in assay [2], 2.7 nM. In assay [6], this molecule came in with an Activity of 0.96.
As for `CCNC(=O)NCCCc1cccc2nc(C(C)C)oc12`, the results for the Ki in assay [1] and in assay [2] were 194 nM and 52 nM, respectively.
In the same order, the values of `CC(=O)NCCCc1cccc2nc(CCCCc3ccccc3)oc12` are 1.3 nM and 16 nM.
In the same order, the values of `CCC(=O)NCCCc1cccc2nc(CC)oc12` are 3.5 nM and 1 nM.
In the same order, the values of `CCc1nc2cccc(CCCNC(=O)C(C)C)c2o1` are 13.2 nM and 4.5 nM.
For `CCC(=O)NCCCc1cccc2nc(C(C)C)oc12`, the Ki in assay [1] was found to be 142 nM; in assay [2] it was 15 nM.
In the same order, the values of `CC(C)C(=O)NCCCc1cccc2nc(CCCCc3ccccc3)oc12` are 1.3 nM and 18 nM.
On the same counts, the results for `CC(=O)NCCCc1cccc2nc(-c3ccccc3)oc12` are 40 nM and 89 nM.
Take `CCCC(=O)NCCCc1cccc2nc(CCC)oc12`: the Ki turned out to be 166 nM in assay [1] and 22 nM in assay [2].
In the same order, the values of `CCNC(=O)NCCCc1cccc2nc(-c3ccccc3)oc12` are 340 nM and 61 nM.
On the same counts, the results for `CCCc1nc2cccc(CCCNC(C)=O)c2o1` are 183 nM and 35 nM.
In the same order, the values of `CCNC(=O)NCCCc1cccc2nc(CC)oc12` are 75 nM and 12 nM.
As to `CCCc1nc2cccc(CCCNC(=O)C3CC3)c2o1`, the Ki is 44 nM in assay [1] and 7.6 nM in assay [2].
As for `CC(C)c1nc2cccc(CCCNC(=O)C3CC3)c2o1`, the figures for the Ki in assay [1] and in assay [2] were 34 nM and 114 nM, respectively.
In the same order, the values of `CCC(=O)NCCCc1cccc2nc(CCCCc3ccccc3)oc12` are 0.76 nM and 14 nM.
On the same counts, the results for `CCCC(=O)NCCCc1cccc2nc(C(C)C)oc12` are 119 nM and 16 nM.
In the same order, the values of `O=C(NCCCc1cccc2nc(CCCCc3ccccc3)oc12)C1CC1` are 0.63 nM and 22 nM.
For the molecule `CCCc1nc2cccc(CCCNC(=O)C(C)C)c2o1`, the Ki in assay [1] amounted to 60 nM; in assay [2] it was 29 nM.
On the same counts, the results for `CCC(=O)NCCCc1cccc2nc(-c3ccccc3)oc12` are 13.1 nM and 10 nM.
As to `Cc1nc2cccc(CCCNC(=O)C(C)C)c2o1`, the Ki in assay [1] was 3 nM; in assay [2] it was 2.3 nM.
In the same order, the values of `CCCC(=O)NCCCc1cccc2ncoc12` are 9.9 nM and 3.7 nM.
On the same counts, the results for `CCCc1nc2cccc(CCCNC(=O)NCC)c2o1` are 492 nM and 36 nM.
On to `CCCc1nc2cccc(CCCNC(=O)CC)c2o1`, for which the Ki in assay [1] was 51 nM; in assay [2], 27 nM.
